Laboratory results as given in patent US11020358B2, “Method for the anti-senescence of and/or rejuvenating stem cells” (GWO XI STEM CELL APPLIED TECHNOLOGY CO., LTD., priority 2014, dated 2021).

Columns and labels:
ADSCs = test: Osteogenic differentiation assay; assay type: cell-based, human; conditions: H2O2 group ADSCs (100 μM 2 h), compared to untreated group
Protocol: Four portions of equal volume of the above culture medium containing the sub-cultured ADSCs were separately handled by adding thereinto H2O2 (purchased from Sigma-Aldrich) at a final concentration of 100 μM and reacting for 2 hours to induce senescence of the ADSCs, replacing the culture medium with a fresh culture medium, adding thereinto TC (trans-cinnamaldehyde, purchased from Sigma-Aldrich) at a final concentration of 0, 2, 4 or 6 μM and reacting for 6 hours, so as to obtain “H2O2 group (i.e., treated with H2O2 for 2 hours, but not treated with TC),” “H2O2+TC2 group (i.e., treated with H2O2 for 2 hours and then treated with 2 μM of TC for 6 hours),” “H2O2+TC4 group (i.e., treated with H2O2 for 2 hours and then treated with 4 μM of TC for 6 hours),” and “H2O2+TC6 group (i.e., treated with H2O2 for 2 hours and then treated with 6 μM of TC for 6 hours)” ADSCs. […] After being photographed, the absorbance at a wavelength of 450 nm (i.e., OD450) of each sample was measured to figure out the effect of H2O2 and/or TC on the osteogenic differentiation capacity of ADSCs.

SIRT1 gene = test: Quantitative RT-PCR of SIRT1 gene in ADSCs; assay type: cell-based, human
Protocol: Four portions of equal volume of the above culture medium containing the sub-cultured ADSCs were separately handled by adding thereinto H2O2 (purchased from Sigma-Aldrich) at a final concentration of 100 μM and reacting for 2 hours to induce senescence of the ADSCs, replacing the culture medium with a fresh culture medium, adding thereinto TC (trans-cinnamaldehyde, purchased from Sigma-Aldrich) at a final concentration of 0, 2, 4 or 6 μM and reacting for 6 hours, so as to obtain “H2O2 group (i.e., treated with H2O2 for 2 hours, but not treated with TC),” “H2O2+TC2 group (i.e., treated with H2O2 for 2 hours and then treated with 2 μM of TC for 6 hours),” “H2O2+TC4 group (i.e., treated with H2O2 for 2 hours and then treated with 4 μM of TC for 6 hours),” and “H2O2+TC6 group (i.e., treated with H2O2 for 2 hours and then treated with 6 μM of TC for 6 hours)” ADSCs.
Five portions of equal volume of the above culture medium containing the sub-cultured ADSCs were separately handled by adding thereinto with H2O2 at a final concentration of 100 μM and reacting for 2 hours to induce senescence of the ADSCs. Then, the culture medium in each of the five portions was replaced with a fresh culture medium. The first portion was handed by adding thereinto TC at a final concentration of 6 μM and reacting for 6 hours to obtain “TC6H group” ADSCs. The second to fifth portions were handled by adding thereinto TC at a final concentration of 6 μM, reacting for 6 hours, and then transferring and incubating the ADSCs in DMEM for 12, 24, 48 and 72 hours respectively to obtain “TC12H group,” “TC24H group,” “TC48H group” and “TC72H group” ADSCs. […]
Each of the cDNA of ADSCs of different groups from Experiment (3-1) was handled as follows. […] The mixture was then placed in a real-time quantitative PCR machine (ABI prism 7700 sequence detection system) to perform a reaction for quantifying the gene expression levels. […]

Structure (SMILES) | cell number after osteogenic differentiation (OD450) (ADSCs) | expression levels of SIRT1 gene (quantitative RT-PCR) (SIRT1 gene; ADSCs treated only with 2, 4 and 6 μM TC 6 h (FIG. 5A)) | time for which the effect of TC on increasing SIRT1 gene expression is maintained (SIRT1 gene; H2O2-senescent ADSCs, 6 μM TC 6 h, then incubated in DMEM 12-72 h, no significant difference to TC6H group) | expression levels of SIRT1 gene (quantitative RT-PCR) (SIRT1 gene; H2O2-senescent ADSCs, 2, 4 and 6 μM TC 6 h, compared to H2O2 group (FIG. 5B))
OO [H2O2, reference compound] | significantly reduced |  |  | 
O=C/C=C/c1ccccc1 [TC, trans-cinnamaldehyde] |  | significantly increased along with the increment in the concentration of TC | at least 72 hours | significantly increased along with the increment in the concentration of TC
